Experimental data published in a melting point compilation (Tetko et al.; mined from patent text by program, amines drawn as free bases though some values may be those of a salt).

Row | SMILES | melting point [°C]
1 | CCNC(=O)[C@@H]1Cc2ccccc2N1 | 92 to 95
2 | Cc1cc(CCc2c(Br)c(C)c(O)c(C)c2Br)c(Br)c(C)c1O | 249 to 255
3 | O=C1c2cc(F)ccc2-n2cnc(C(=O)n3ccnc3)c2[C@@H]2CCCN12 | 206 to 207
4 | CCCCCCCCCCC(=O)C(=O)N[C@@H](CCCC)CCC(=O)O | 50 to 52
5 | Nc1nc(-c2ccccc2)c(CCBr)c2ncnn12 | 193 to 194
6 | CCC(C)(C)N=C(Nc1cncnc1)c1ccc(Cl)cc1Cl | 136 to 137
7 | O=C(O)c1ccc(-c2cnc3c(c2)N(Cc2c(F)ccc(F)c2Cl)C(=O)CN3)cc1 | > 300
8 | CC(=O)c1ccc(Nc2cc(C)nc(N)n2)cc1 | 194 to 196
9 | CCC(COc1ccccc1COc1cccc2ccc(=O)[nH]c12)OC(C)=O (configuration not stated) | 112 to 114
10 | CC1(C)CCC(C)(C)c2cc(Cn3cccn3)c(/C=C/c3ccc(C(=O)O)cc3)cc21 | 246 to 248
11 | COCOc1cc(F)ccc1-c1cc(-c2cccc(NC(=O)CCN(C)C(=O)OC(C)(C)C)c2)c(C#N)c(NC(=O)c2ccco2)n1 | 172 to 174
12 | CCOC(=O)CCCN1CCC[C@H](NCc2ccccc2OC)[C@@H]1c1ccccc1 (relative stereo) | 75 to 90
13 | C/C(=C\c1ccc(C(=O)Nc2nnn[nH]2)cc1)c1ccc2c(c1)C(C)(C)CCO2 | > 250
14 | CCCCCCCCCCCCCCc1ccc(OCC(CO)OC)cc1 (configuration not stated) | 43 to 45
15 | CCOC(=O)CN1C(=O)COc2cc(N)ccc21 | 136 to 137
16 | Cc1cc(C(N)=O)ncc1C(c1c(F)ccc(F)c1F)S(=O)(=O)CCC(F)(F)F (configuration not stated) | 190 to 191
17 | NS(=O)(=O)c1ccc2c(c1)C(=O)C1(CCOC1=O)O2 (configuration not stated) | 202 to 215
18 | O=C(ONC1CCCCC1)c1n[nH]c2c(=O)[nH]c3cc(Cl)ccc3c(=O)c12 | 220
19 | CN(C(=O)CCNC#N)c1nnc(-c2cccnc2)s1 | 155 to 159
20 | CCc1cc(O)n(-c2ccccn2)n1 | 189
21 | CN(C)CCOc1ccc(CNC(=O)c2ccc(S(N)(=O)=O)cc2)cc1 | 174
22 | CCCc1nc(N2CCOCC2)nc(N(CCOC(C)=O)C(C)=O)n1 | 49 to 50
23 | NC1CN(C(=O)Nc2ccc(C(F)(F)F)cc2)N=C1c1ccc(Cl)cc1 (configuration not stated) | 144 to 146
24 | COc1ccc2c(c1)CCc1nn(-c3ccccn3)c(O)c1-2 | 139 to 140
25 | O=[N+]([O-])c1ccc(C2OCc3ccc(CCl)cc3CO2)cc1 (configuration not stated) | 138 to 140

Row | SMILES | melting point [°C]
26 | CCOC(=O)C(=O)CC(=O)c1cn(Cc2ccccc2OC)c2ccccc2c1=O | 154 to 156
27 | Cc1nc(N2CCc3ccccc3CC2)c(C#N)c(=O)n1CC(F)(F)F | 108 to 110
28 | COC(=O)C(=NOCF)c1ccccc1COc1ccccc1C | 101 to 102
29 | C#CC12CCCN(CC1)C2 (configuration not stated) | 41 to 42
30 | CC(=O)N1CCC2(CC1)CC(=O)c1c(ccc([N+](=O)[O-])c1O)O2 | 201 to 202
31 | O=C(O)Cc1cccc(C(=O)c2cc3cc(C(=O)O)sc3s2)c1 | 283
32 | CC(C)C[C@H](NC(=O)OCc1ccccc1Cl)C(=O)N[C@@H](Cc1ccccc1)C(=O)CSCc1ccco1 | 80 to 85
33 | CCOC(=O)C=C(C)c1ccc(-c2ccccc2)cc1 | 76 to 78
34 | CCCCC(Cc1ccc(OCCNC(=O)c2ccc(-c3cccc(OC)c3)cc2)cc1)C(=O)O (configuration not stated) | 107 to 109
35 | CC1=C(c2cccc(C(F)(F)F)c2)n2ncc(C#N)c2N(C(=O)CN2CCN(c3ccccn3)CC2)C1 | 132 to 134
36 | Cc1nc(-c2nn(Cc3ccccc3F)c3ccccc23)oc1CO | 144
37 | CCCNC1CN(C(=O)Nc2ccc(C(F)(F)F)cc2)N=C1c1ccc(OC(F)F)c(C)c1 (configuration not stated) | 90 to 92
38 | COc1cc2c(c(OC)c1OC)-c1cc3c(cc1COC2)OCO3 | 154 to 156
39 | CCOc1ccn(C2OC(CO)C(O)C2O)c(=O)n1 (configuration not stated) | 110 to 114
40 | CCOC(=O)c1sc(Oc2ccc(Cl)cc2Cl)nc1C | 71 to 73
41 | CCCc1nc2c(N)nc3c(c2n1CCCCCC(=O)N1CCOCC1)CCCC3 | 162 to 163
42 | CCCCCc1cc2c(nc(O)n2[C@@H](C)c2ccccc2)c(N)n1 | 147 to 148
43 | COC(=O)C(C)(C)OCc1cc2nc(Cl)ccc2n1S(=O)(=O)c1ccc2c(c1)OCO2 | 131
44 | CC(=O)OC(c1cn2c(nc3ccccc32)s1)C1(Br)C(=O)N2C(C(=O)OCc3ccc([N+](=O)[O-])cc3)=CS[C@@H]21 (some centres not stated) | 78
45 | O=C(c1ccc(Cl)c([N+](=O)[O-])c1)c1cc2ccccc2o1 | 132
46 | CCC(O)(c1ccc(Cl)cc1)c1ccc(OCc2cccc(C)n2)cc1 (configuration not stated) | 100 to 101
47 | CCCN1C(=O)N2CC(Cc3ccccc3)N=C2c2[nH]c(C(C)OCC)nc21 (configuration not stated) | 165 to 170
48 | O=C(O)c1cccc(N2CCc3ccccc32)c1 | 168 to 170
49 | CN1C(=O)c2cscc2Nc2cc(Cl)c(Cl)cc21 | 265 to 267
50 | O=C(O)Cc1c(-c2ccccc2)n[nH]c1-c1ccccc1 | 210 to 211

Row | SMILES | melting point [°C]
51 | COc1cc(Nc2cc(C(=O)O)c(C(=O)O)cc2Nc2ccccc2)cc(OC)c1OC | 145 to 146
52 | CCN1c2ncc(Cc3cccc(F)c3)cc2C(=O)N(C)c2ccc(Cl)nc21 | 104 to 105
53 | CCc1nc(N)nc(N)c1N1CCN(Cc2ccccc2)CC1 | 174 to 175
54 | Cc1ccc(CC2CCN(C(=O)C(=O)Nc3ccc4[nH]c(=O)[nH]c4c3)CC2)cc1 | > 280
55 | Cc1cc2c(cc1C)N=C(c1ccc(-n3c(C)nc4cnccc43)cc1)CC(N)=N2 | 299 to 302
56 | O=S(=O)(c1ccccc1)c1cc[nH]c1-c1ccc(Cl)cc1 | 158 to 159
57 | O=C1CCCc2nc3ccccc3c(NCc3ccc(OCc4ccccc4)cc3)c21 | 153 to 157
58 | N#Cc1ccc(NC(=O)C(F)(F)C(F)(F)C(F)(F)F)cc1 | 116 to 118
59 | N#Cc1ccc(OCCN2CCN(c3cc(Cl)nnc3Cl)CC2)cc1 | 175 to 177
60 | CC(=O)N(C(C)=O)C1=C(N2CCN(Cc3cc(=O)[nH]c(=O)[nH]3)CC2)C(=O)c2ccccc2C1=O | 152 to 154
61 | CCN(CC)CCn1c2ccccc2c(=NN=C2SCCN2C)c2ccccc21 | 123 to 125
62 | Cc1cc2c(cc1C(F)(F)F)N(C(=O)Nc1cnc(OCc3ccccn3)c(C)c1)CC2 | 188 to 189
63 | O=C(NCCCCCCCCCNC(=O)c1ccc(OC(F)(F)F)cc1)c1ccc(OC(F)(F)F)cc1 | 144 to 145
64 | CC(=O)OCCn1cc(C2=C(c3cn(C)c4ccccc34)C(=O)OC2=O)c2ccccc21 | 198 to 199
65 | NC(=O)C1=CCCc2cc(Sc3ccccc3)cc(F)c21 | 224 to 226
66 | COC(=O)c1c(Cl)cccc1S(N)(=O)=O | 144 to 149
67 | C=CCC(O)(C(=O)c1ccccc1)c1ccccc1 (configuration not stated) | 85 to 90
68 | Cc1c(NC(=O)c2ccc(-c3ccc(F)cc3)c(F)c2)ccc2cc(CN3CCCC3)cnc12 | 176 to 178
69 | COCc1cc(Oc2ccc3c(C(=O)OC)cccc3c2)ncn1 | 87 to 88
70 | O=C(c1ccccc1)n1c2c(c3ccccc31)CC(CO)CC2 (configuration not stated) | 105 to 107
71 | CC1=C(C(=O)OCC2CCCO2)C(c2cccc(Br)c2)C(C(=O)OCC2CCCO2)=C(C)N1 (configuration not stated) | 138 to 140
72 | C=Cc1cc(OC)cc2cc(-c3ccc(OC)cc3)oc12 | 182 to 184
73 | CC(Oc1ccc([N+](=O)[O-])cc1[N+](=O)[O-])C(=O)O (configuration not stated) | 167 to 171
74 | C[C@H]1CN(c2c(F)cc3c(=O)c(C(=O)O)cn(C4CC4)c3c2Br)C[C@H]1N (relative stereo) | 186 to 190
75 | O=C(O)COc1cccc(-c2ccccc2OC2OC(CO)C(O)C(O)C2O)c1 (configuration not stated) | 58 to 60

Row | SMILES | melting point [°C]
76 | CCOc1c(N)c2c(c(OCC)c1OCC)C(C1c3cc(OC)c(OC)cc3CCN1C)OC2=O (configuration not stated) | 143
77 | Cc1ccc2c(c1)C(CCO)N(c1cccc([N+](=O)[O-])c1)N(C)C2=O (configuration not stated) | 169 to 170
78 | CC(NC(=O)c1ccc(C2(C)C(=O)Nc3cc(Cl)cc(Cl)c3C2=O)cc1)c1ccccc1 (configuration not stated) | 110 to 115
79 | CCOC(=O)c1cc(Cl)cc2c(=O)c(C)c(-c3ccccc3)oc12 | 127 to 128
80 | O=C(Oc1ccccc1)N1C(C2=COc3ccccc3O2)=COc2cccnc21 | 142
81 | O=C(O)CCCC=Cc1nn(-c2ccccc2)c2c1CCC2 | 130 to 131
82 | O=C(O)COC(=O)c1c(Cl)cccc1Cl | 180 to 182
83 | O=C(Nc1cccc2c(=O)cc(C(=O)O)oc12)c1ccc2oc(COCc3ccccc3)cc2c1 | 215 to 218
84 | CC(C)(CN)Cc1ccc(-c2ccc(CC(C)(C)CN)cc2)cc1 | 97 to 99
85 | CN1c2ccc(C#CCO)cc2C(O)=C(C(=O)NCc2ccc(Cl)cc2)S1(=O)=O | 167 to 168
86 | O=C1CCCC12CCn1c(cc3ccccc31)C2 (configuration not stated) | 128 to 130
87 | Clc1ccc(C2CN3C(=N2)Sc2ccccc23)cc1 (configuration not stated) | 143
88 | CC(C)(C)C(=O)c1ccc(C(=O)O)cc1 | 160 to 162
89 | N#CCC(O)(c1ccc(-c2ccccc2)cc1)c1ccc(-c2ccccc2)cc1 | 168 to 170
90 | CCCCc1cccc(-c2nc(C(C)C)n(C)n2)n1 | 58.1
91 | CCCc1nc2c(N)nc3cc(-c4ccccc4)ccc3c2n1CC(C)(C)NS(C)(=O)=O | 135 to 141
92 | O=C(Nc1ccc(OCCN2CCOCC2)c2ccccc12)c1ccc2snnc2c1 | 188 to 190
93 | O=c1ccc2c(-c3cccc(O)c3)nccc2[nH]1 | 297 to 299
94 | Cc1cc(Br)cnc1CCCCc1cc(N)cc2c1C(N)=NS2(=O)=O | 276 to 279
95 | CCc1ccc(-n2nc(Cl)cc2-c2ccc(S(C)(=O)=O)cc2)cc1[N+](=O)[O-] | 134 to 135
96 | Oc1ccc(-c2nc(-c3ccccc3)nc3ccccc23)c(O)c1 | 178 to 180
97 | COCCOc1cc(C(F)(F)F)cc(Oc2ccc(CCNc3ncnc4nccnc34)cc2)n1 | 101 to 104
